# Patent publication US9447100B2, “Substituted pyrazolo[1,5-A] pyrimidines as calcium receptor modulating agents” (Takeda Pharmaceutical Company Limited, priority 2002, dated 2016)
# Structures can show the parent of a compound that is named as a salt.
row,melting point [°C],Compound
1,139 to 140,"CCC(CC)(NC(=O)c1c(C)nn2c1NC(c1ccccc1F)CC2(C)C)c1ccc(C)cc1 (stereo not shown) [Example 962, N-[1-ethyl-1-(4-methylphenyl)propyl]-5-(2-fluorophenyl)-2,7,7-trimethyl-4,5,6,7-tetrahydropyrazolo[1,5-a]pyrimidine-3-carboxamide]"
2,183 to 184,"O=C(c1cnn2c1NC(c1ccccc1)CC2C(F)(F)F)N1CCc2nn(-c3ccc(Cl)cc3)cc2C1 (stereo not shown) [Example 275, 2-(4-chlorophenyl)-5-((5-phenyl-7-(trifluoromethyl)-4,5,6,7-tetrahydropyrazolo[1,5-a]pyrimidin-3-yl)carbonyl)-4,5,6,7-tetrahydro-2H-pyrazolo[4,3-c]pyridine]"
3,237 to 238,"CCC(CC)(NC(=O)c1cnn2c1NC(c1ccccc1)CC2(C)C)c1ccc(C#N)cc1 (stereo not shown) [Example 574, N-(1-(4-cyanophenyl)-1-ethylpropyl)-7,7-dimethyl-5-phenyl-4,5,6,7-tetrahydropyrazolo[1,5-a]pyrimidine-3-carboxamide]"
4,123 to 124,"CC(C)[C@H]1CC[C@H](C)CC1OC(=O)c1cnn2c1NC(c1ccccc1)CC2(C)C (stereo partly drawn) [Example 1140, (2R,5S)-2-isopropyl-5-methylcyclohexyl 7,7-dimethyl-5-phenyl-4,5,6,7-tetrahydropyrazolo[1,5-a]pyrimidine-3-carboxylate]"
5,149 to 150,"CCc1ccc(C(CC)(CC)NC(=O)c2cnn3c2N[C@@H](c2ccccc2)CC3(C)C)cc1 (as salt: HCl) [Example 1051, (5R)-N-(1-ethyl-1-(4-ethylphenyl)propyl)-7,7-dimethyl-5-phenyl-4,5,6,7-tetrahydropyrazolo[1,5-a]pyrimidine-3-carboxamide]"
6,137 to 139,"CC1(C)CC(c2ccccc2)Nc2c(C(=O)O)c(OCCO)nn21 (stereo not shown) [Example 953, 2-(2-hydroxyethoxy)-7,7-dimethyl-5-phenyl-4,5,6,7-tetrahydropyrazolo[1,5-a]pyrimidine-3-carboxylic acid]"
7,152 to 153,"CCC(CC)(NC(=O)c1c(C)nn2c1NC(c1ccccc1F)CC2(C)C)c1ccc(C)cc1 (stereo not shown) (as salt: HCl) [Example 831, N-(1-ethyl-1-(4-methylphenyl)propyl)-5-(2-fluorophenyl)-2,7,7-trimethyl-4,5,6,7-tetrahydropyrazolo[1,5-a]pyrimidine-3-carboxamide]"
8,143 to 145,"CCC(CC)(NC(=O)c1cnn2c1NC(c1ccccc1C)CC2(C)C)c1ccc(Cl)cc1 (stereo not shown) [Example 697, N-(1-(4-chlorophenyl)-1-ethylpropyl)-7,7-dimethyl-5-(2-methylphenyl)-4,5,6,7-tetrahydropyrazolo[1,5-a]pyrimidine-3-carboxamide]"
9,156 to 157,"CCC(CC)(NC(=O)c1cnn2c1NC(c1cccc(OC)n1)CC2(C)C)c1ccc(F)cc1 (stereo not shown) [Example 603, N-(1-ethyl-1-(4-fluorophenyl)propyl)-5-(6-methoxy-2-pyridinyl)-7,7-dimethyl-4,5,6,7-tetrahydropyrazolo[1,5-a]pyrimidine-3-carboxamide]"
10,221 to 222,"CC(C)(NC(=O)c1cnn2c1NC(c1ccccc1)CC2C(F)(F)F)c1cccc2ccccc12 (stereo not shown) [Example 368, N-(1-methyl-1-(1-naphthyl)ethyl)-5-phenyl-7-(trifluoromethyl)-4,5,6,7-tetrahydropyrazolo[1,5-a]pyrimidine-3-carboxamide]"
11,> 300,"CC1(C)CC(c2ccccc2)Nc2c(C(=O)NC3(C#N)CCCCC3)cnn21 (stereo not shown) [Example 627, N-(1-cyanocyclohexyl)-7,7-dimethyl-5-phenyl-4,5,6,7-tetrahydropyrazolo[1,5-a]pyrimidine-3-carboxamide]"
12,116 to 118,"CCC1(CC)C[C@H](OCc2ccccc2)CN1C(=O)c1cnn2c1N[C@H](c1ccccc1)CC2(C)C [Example 1109, (5S)-3-(((4S)-4-(benzyloxy)-2,2-diethy-1-pyrrolidinyl)carbonyl)-7,7-dimethyl-5-phenyl-4,5,6,7-tetrahydropyrazolo[1,5-a]pyrimidine]"
13,101 to 102,"CCOC(=O)CCCOc1ccc(C(CC)(CC)NC(=O)c2cnn3c2NC(c2ccccc2)CC3(C)C)cc1 (stereo not shown) [Example 770, ethyl 4-(4-(1-(((7,7-dimethyl-5-phenyl-4,5,6,7-tetrahydropyrazolo[1,5-a]pyrimidin-3-yl)carbonyl)amino)-1-ethyl-propyl)phenoxy)butanoate]"
14,204 to 205,"Cc1nn2c(c1C(=O)NC(C)(C)c1ccc(Cl)cc1)NC(c1ccccc1)CC2(C)C (stereo not shown) (as salt: HCl) [Example 792, N-(1-(4-chlorophenyl)-1-methylethyl)-2,7,7-trimethyl-5-phenyl-4,5,6,7-tetrahydropyrazolo[1,5-a]pyrimidine-3-carboxamide]"
15,140 to 141,"CC1(C)CC(c2ccccc2)Nc2c(C(=O)NC3(C(N)=O)CCCCC3)cnn21 (stereo not shown) [Example 626, N-(1-(aminocarbonyl)cyclohexyl)-7,7-dimethyl-5-phenyl-4,5,6,7-tetrahydropyrazolo[1,5-a]pyrimidine-3-carboxamide]"
16,154 to 155,"COc1ccc(C2CC(C(F)(F)F)n3ncc(C(=O)O)c3N2)cc1 (stereo not shown) [Example 25, 5-(4-methoxyphenyl)-7-(trifluoromethyl)-4,5,6,7-tetrahydropyrazolo[1,5-a]pyrimidine-3-carboxylic acid]"
17,173 to 174,"Cc1nn2c(c1C(=O)O)NC(c1ccc(F)cc1)CC2(C)C (stereo not shown) [Example 948, 5-(4-fluorophenyl)-2,7,7-trimethyl-4,5,6,7-tetrahydropyrazolo[1,5-a]pyrimidine-3-carboxylic acid]"
18,185 to 186,"CCC(CC)(NC(=O)c1cnn2c1NC(c1ccccc1)CC2(C)C)c1ccc(-c2ccoc2)cc1 (stereo not shown) [Example 585, N-(1-ethyl-1-(4-(3-furyl)phenyl)propyl)-7,7-dimethyl-5-phenyl-4,5,6,7-tetrahydropyrazolo[1,5-a]pyrimidine-3-carboxamide]"
19,142 to 143,"CCC(CC)(NC(=O)c1cnn2c1N(Cc1ccccc1)C(c1ccccc1)CC2(C)C)c1ccc(C)cc1 (stereo not shown) [Example 765, 4-benzyl-N-(1-ethyl-1-(4-methylphenyl)propyl)-7,7-dimethyl-5-phenyl-4,5,6,7-tetrahydropyrazolo[1,5-a]pyrimidine-3-carboxamide]"
20,204 to 205,"CCC(NC(=O)c1cnn2c1NC(c1ccccc1)CC2C(F)(F)F)c1ccccc1F (stereo not shown) [Example 400, N-(1-(2-fluorophenyl)propyl)-5-phenyl-7-(trifluoromethyl)-4,5,6,7-tetrahydropyrazolo[1,5-a]pyrimidine-3-carboxamide]"
21,147 to 148,"C=CCc1ccc(C(CC)(CC)NC(=O)c2cnn3c2NC(c2ccccc2)CC3(C)C)cc1 (stereo not shown) [Example 705, N-(1-(4-allylphenyl)-1-ethylpropyl)-7,7-dimethyl-5-phenyl-4,5,6,7-tetrahydropyrazolo[1,5-a]pyrimidine-3-carboxamide]"
22,155 to 157,"Cc1ccc(C2CC(C)(C)n3ncc(C(=O)O)c3N2)c(C)c1 (stereo not shown) [Example 952, 5-(2,4-dimethylphenyl)-7,7-dimethyl-4,5,6,7-tetrahydropyrazolo[1,5-a]pyrimidine-3-carboxylic acid]"
